Measurements reported in patent US5665704A, “Receptor specific atrial natriuretic peptides” (Genentech, Inc., priority 1995, dated 1997).
Bridge positions count the residues as written; N and C are the ends. Square brackets hold non-standard residues; d marks the D form. Peptide text beside a SMILES is read from it. Cha = N[C@@H](CC1CCCCC1)C(=O)O; Mpa = O=C(O)CCS

Columns and labels:
hNPR-A = biological target: T1, hNPR-A (Homo sapiens, UniProt P16066); assay: Binding affinity for hNPR-A (competitive displacement of I^125 labeled wild-type ANF); details: Table I; read-out: Binding Affinity IC50 (pM) hNPR-A
T1 sequence (P16066 33-1061): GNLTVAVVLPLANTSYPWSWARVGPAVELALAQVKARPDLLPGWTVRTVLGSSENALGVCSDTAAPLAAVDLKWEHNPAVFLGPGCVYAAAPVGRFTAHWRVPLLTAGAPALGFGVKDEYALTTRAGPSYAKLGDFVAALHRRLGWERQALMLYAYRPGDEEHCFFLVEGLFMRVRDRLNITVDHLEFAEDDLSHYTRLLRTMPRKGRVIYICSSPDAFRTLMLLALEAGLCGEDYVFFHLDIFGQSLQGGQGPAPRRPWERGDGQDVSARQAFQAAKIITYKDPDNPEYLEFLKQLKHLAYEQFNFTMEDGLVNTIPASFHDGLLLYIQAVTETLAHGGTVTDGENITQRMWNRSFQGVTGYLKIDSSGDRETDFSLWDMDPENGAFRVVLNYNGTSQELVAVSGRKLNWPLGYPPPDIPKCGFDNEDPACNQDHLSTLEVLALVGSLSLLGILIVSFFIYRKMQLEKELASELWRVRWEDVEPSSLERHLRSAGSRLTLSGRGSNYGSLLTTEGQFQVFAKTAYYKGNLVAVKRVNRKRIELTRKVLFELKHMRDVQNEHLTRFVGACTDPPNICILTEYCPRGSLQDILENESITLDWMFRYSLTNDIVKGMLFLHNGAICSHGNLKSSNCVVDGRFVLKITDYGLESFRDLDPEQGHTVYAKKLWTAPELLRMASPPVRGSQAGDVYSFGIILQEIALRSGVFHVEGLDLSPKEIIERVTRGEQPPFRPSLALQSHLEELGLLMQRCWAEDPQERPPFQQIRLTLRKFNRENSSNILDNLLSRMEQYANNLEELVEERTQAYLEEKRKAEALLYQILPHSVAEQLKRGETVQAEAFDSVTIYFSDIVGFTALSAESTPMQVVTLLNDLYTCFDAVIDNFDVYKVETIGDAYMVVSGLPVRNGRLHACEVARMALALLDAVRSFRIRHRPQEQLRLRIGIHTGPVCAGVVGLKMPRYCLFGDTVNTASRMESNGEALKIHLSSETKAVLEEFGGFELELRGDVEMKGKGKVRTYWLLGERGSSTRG

hNPR-C = biological target: T2, hNPR-C (Homo sapiens, UniProt P17342); assay: Binding affinity for clearance receptor hNPR-C; details: Table I; read-out: Binding Affinity IC50 (pM) hNPR-C
T2 sequence (P17342 27-541): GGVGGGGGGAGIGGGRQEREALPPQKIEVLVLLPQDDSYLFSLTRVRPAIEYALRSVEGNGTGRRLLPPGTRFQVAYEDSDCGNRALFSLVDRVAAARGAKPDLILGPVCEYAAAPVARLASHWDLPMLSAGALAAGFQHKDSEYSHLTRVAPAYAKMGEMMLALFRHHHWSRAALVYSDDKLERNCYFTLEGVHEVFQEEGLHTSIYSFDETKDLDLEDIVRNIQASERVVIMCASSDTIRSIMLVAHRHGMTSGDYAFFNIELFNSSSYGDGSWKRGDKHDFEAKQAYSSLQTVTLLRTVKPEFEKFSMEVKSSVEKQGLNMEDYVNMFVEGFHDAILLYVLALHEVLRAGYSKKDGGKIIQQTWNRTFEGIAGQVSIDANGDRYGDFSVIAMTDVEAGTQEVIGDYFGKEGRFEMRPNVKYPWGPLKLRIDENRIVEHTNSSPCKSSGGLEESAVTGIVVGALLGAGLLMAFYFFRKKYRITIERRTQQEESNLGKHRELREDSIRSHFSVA
Text: For assay systems to measure binding of hANF and the compounds of this invention to hNPR-C see: Schank, D. B., et al., Biochem. Biophys. Res. Comm. 127:433-442 (1985); Scarborough, R. M., J. Biol. Chem. 261:12960-12964 and WO 90/01940.

Row | SMILES | IC50 (hNPR-A) [pM] | IC50 (hNPR-C) [pM]
1 | CC[C@H](C)[C@@H]1NC(=O)[C@H](CCCNC(=N)N)NC(=O)[C@H](CC(=O)O)NC(=O)[C@H]([C@@H](C)CC)NC(=O)[C@H](CO)NC(=O)CNC(=O)[C@H]([C@@H](C)O)NC(=O)[C@H](Cc2ccccc2)NC(=O)[C@@H](CO)NC(=O)[C@@H](NC(=O)[C@H](CO)NC(=O)[C@H](CO)NC(=O)[C@H](CCCNC(=N)N)NC(=O)[C@H](CCCNC(=N)N)NC(=O)[C@H](CC(C)C)NC(=O)[C@@H](N)CO)CSSC[C@@H](C(=O)N[C@@H](CC(N)=O)C(=O)N[C@@H](CO)C(=O)N[C@@H](Cc2ccccc2)C(=O)N[C@@H](CCCNC(=N)N)C(=O)N[C@@H](Cc2ccc(O)cc2)C(=O)O)NC(=O)CNC(=O)[C@H](CC(C)C)NC(=O)CNC(=O)[C@H](CO)NC(=O)[C@H](CCC(N)=O)NC(=O)[C@H](C)NC(=O)[C@H](CCCNC(=N)N)NC1=O [ANF74] (H-SLRRSSC[dS]FTGSIDRIRAQSGLGCNSFRY-OH; disulfide 7-24) | 29400 | 1e+07
2 | CC[C@H](C)[C@@H]1NC(=O)[C@H](CCCNC(=N)N)NC(=O)[C@H](CC(=O)O)NC(=O)[C@H]([C@@H](C)CC)NC(=O)[C@H](CO)NC(=O)CNC(=O)[C@H]([C@@H](C)O)NC(=O)[C@H](Cc2ccccc2)NC(=O)[C@@H](C)NC(=O)[C@@H](NC(=O)[C@H](CO)NC(=O)[C@H](CO)NC(=O)[C@H](CCCNC(=N)N)NC(=O)[C@H](CCCNC(=N)N)NC(=O)[C@H](CC(C)C)NC(=O)[C@@H](N)CO)CSSC[C@@H](C(=O)N[C@@H](CC(N)=O)C(=O)N[C@@H](CO)C(=O)N[C@@H](Cc2ccccc2)C(=O)N[C@@H](CCCNC(=N)N)C(=O)N[C@@H](Cc2ccc(O)cc2)C(=O)O)NC(=O)CNC(=O)[C@H](CC(C)C)NC(=O)CNC(=O)[C@H](CO)NC(=O)[C@H](CCC(N)=O)NC(=O)[C@H](C)NC(=O)[C@H](CCCNC(=N)N)NC1=O [ANF75] (H-SLRRSSC[dA]FTGSIDRIRAQSGLGCNSFRY-OH; disulfide 7-24) | 2080 | 2e+06
3 | CC[C@H](C)[C@@H]1NC(=O)[C@H](CCCNC(=N)N)NC(=O)[C@H](CC(=O)O)NC(=O)[C@H]([C@@H](C)CC)NC(=O)[C@H](CO)NC(=O)CNC(=O)[C@H]([C@@H](C)O)NC(=O)[C@H](CC2CCCCC2)NC(=O)[C@@H](NC(=O)[C@H](CO)NC(=O)[C@H](CO)NC(=O)[C@H](CCCNC(=N)N)NC(=O)[C@H](CCCNC(=N)N)NC(=O)[C@H](CC(C)C)NC(=O)[C@@H](N)CO)CSSC[C@@H](C(=O)N[C@@H](CC(N)=O)C(=O)N[C@@H](CO)C(=O)N[C@@H](Cc2ccccc2)C(=O)N[C@@H](CCCNC(=N)N)C(=O)N[C@@H](Cc2ccc(O)cc2)C(=O)O)NC(=O)CNC(=O)[C@H](CC(C)C)NC(=O)CNC(=O)[C@H](CO)NC(=O)[C@H](CCC(N)=O)NC(=O)[C@H](C)NC(=O)[C@H](CCCNC(=N)N)NC1=O [ANF79] (H-SLRRSSC[Cha]TGSIDRIRAQSGLGCNSFRY-OH; disulfide 7-23) | 2.4 | 1.48e+06
4 | CC[C@H](C)[C@@H]1NC(=O)[C@H](CCCNC(=N)N)NC(=O)[C@H](CC(=O)O)NC(=O)[C@H]([C@@H](C)CC)NC(=O)[C@H](CO)NC(=O)CNC(=O)[C@@H]([C@H](C)O)NC(=O)[C@H](Cc2ccccc2)NC(=O)CCSSC[C@@H](C(=O)N[C@@H](CC(N)=O)C(=O)N[C@@H](CO)C(=O)N[C@@H](Cc2ccccc2)C(=O)N[C@@H](CCCNC(=N)N)C(=O)N[C@@H](Cc2ccc(O)cc2)C(=O)O)NC(=O)CNC(=O)[C@H](CC(C)C)NC(=O)CNC(=O)[C@H](CO)NC(=O)[C@H](CCC(N)=O)NC(=O)[C@H](C)NC(=O)[C@H](CCCNC(=N)N)NC1=O [ANF80] ([Mpa]F[dT]GSIDRIRAQSGLGCNSFRY-OH; disulfide 1-17) | 423 | 739000
5 | CC[C@H](C)[C@@H]1NC(=O)[C@H](CCCNC(=N)N)NC(=O)[C@H](CC(=O)O)NC(=O)[C@H]([C@@H](C)CC)NC(=O)[C@H](CO)NC(=O)CNC(=O)[C@@H](C)NC(=O)[C@H](Cc2ccccc2)NC(=O)CCSSC[C@@H](C(=O)N[C@@H](CC(N)=O)C(=O)N[C@@H](CO)C(=O)N[C@@H](Cc2ccccc2)C(=O)N[C@@H](CCCNC(=N)N)C(=O)N[C@@H](Cc2ccc(O)cc2)C(=O)O)NC(=O)CNC(=O)[C@H](CC(C)C)NC(=O)CNC(=O)[C@H](CO)NC(=O)[C@H](CCC(N)=O)NC(=O)[C@H](C)NC(=O)[C@H](CCCNC(=N)N)NC1=O [ANF81] ([Mpa]F[dA]GSIDRIRAQSGLGCNSFRY-OH; disulfide 1-17) | 1400 | 3.86e+06
6 | CC[C@H](C)[C@@H]1NC(=O)[C@H](CCCNC(=N)N)NC(=O)[C@H](CC(=O)O)NC(=O)[C@H]([C@@H](C)CC)NC(=O)[C@H](CO)NC(=O)CNC(=O)[C@H]([C@@H](C)O)NC(=O)[C@H](Cc2ccccc2)N(C)C(=O)[C@@H](NC(=O)[C@H](CO)NC(=O)[C@H](CO)NC(=O)[C@H](CCCNC(=N)N)NC(=O)[C@H](CCCNC(=N)N)NC(=O)[C@H](CC(C)C)NC(=O)[C@@H](N)CO)CSSC[C@@H](C(=O)N[C@@H](CC(N)=O)C(=O)N[C@@H](CO)C(=O)N[C@@H](Cc2ccccc2)C(=O)N[C@@H](CCCNC(=N)N)C(=O)N[C@@H](Cc2ccc(O)cc2)C(=O)O)NC(=O)CNC(=O)[C@H](CC(C)C)NC(=O)CNC(=O)[C@H](CO)NC(=O)[C@H](CCC(N)=O)NC(=O)[C@H](C)NC(=O)[C@H](CCCNC(=N)N)NC1=O [ANF83] | 16 | 3.44e+06
7 | CC[C@H](C)[C@@H]1NC(=O)[C@H](CCCNC(=N)N)NC(=O)[C@H](CC(=O)O)NC(=O)[C@H]([C@@H](C)CC)NC(=O)[C@H](CO)NC(=O)CNC(=O)[C@H]([C@@H](C)O)NC(=O)[C@H](Cc2ccccc2)NC[C@@H](NC(=O)[C@H](CO)NC(=O)[C@H](CO)NC(=O)[C@H](CCCNC(=N)N)NC(=O)[C@H](CCCNC(=N)N)NC(=O)[C@H](CC(C)C)NC(=O)[C@@H](N)CO)CSSC[C@@H](C(=O)N[C@@H](CC(N)=O)C(=O)N[C@@H](CO)C(=O)N[C@@H](Cc2ccccc2)C(=O)N[C@@H](CCCNC(=N)N)C(=O)N[C@@H](Cc2ccc(O)cc2)C(=O)O)NC(=O)CNC(=O)[C@H](CC(C)C)NC(=O)CNC(=O)[C@H](CO)NC(=O)[C@H](CCC(N)=O)NC(=O)[C@H](C)NC(=O)[C@H](CCCNC(=N)N)NC1=O [ANF84] | 21 | 1.9e+07
8 | CC[C@H](C)[C@@H]1NC(=O)[C@H](CCCNC(=N)N)NC(=O)[C@H](CC(=O)O)NC(=O)[C@H]([C@@H](C)CC)NC(=O)[C@H](CC(=O)O)NC(=O)CNC(=O)[C@@H](C)NC(=O)[C@H](Cc2ccccc2)NC(=O)[C@@H](NC(=O)[C@H](CO)NC(=O)[C@H](CO)NC(=O)[C@H](CCCNC(=N)N)NC(=O)[C@H](CCCNC(=N)N)NC(=O)[C@H](CC(C)C)NC(=O)[C@@H](N)CO)CSSC[C@@H](C(=O)N[C@@H](CC(N)=O)C(=O)N[C@@H](CO)C(=O)N[C@@H](Cc2ccccc2)C(=O)N[C@@H](CCCNC(=N)N)C(=O)N[C@@H](Cc2ccc(O)cc2)C(=O)O)NC(=O)CNC(=O)[C@H](CC(C)C)NC(=O)CNC(=O)[C@H](CO)NC(=O)[C@H](CCC(N)=O)NC(=O)[C@H](C)NC(=O)[C@H](CCCNC(=N)N)NC1=O [ANF90] (H-SLRRSSCF[dA]GDIDRIRAQSGLGCNSFRY-OH; disulfide 7-23) | 1200 | 6.14e+06
